# Assays:
# [1] = target: T1, Tyrosine-protein kinase JAK3 (Homo sapiens, UniProt P52333); experiment: (§1) In Vitro Kinase Enzyme Assay: In vitro kinase enzyme assay using Jak3, Jak2, Jak1, and Tyk2.
# T1 sequence (P52333 whole entry): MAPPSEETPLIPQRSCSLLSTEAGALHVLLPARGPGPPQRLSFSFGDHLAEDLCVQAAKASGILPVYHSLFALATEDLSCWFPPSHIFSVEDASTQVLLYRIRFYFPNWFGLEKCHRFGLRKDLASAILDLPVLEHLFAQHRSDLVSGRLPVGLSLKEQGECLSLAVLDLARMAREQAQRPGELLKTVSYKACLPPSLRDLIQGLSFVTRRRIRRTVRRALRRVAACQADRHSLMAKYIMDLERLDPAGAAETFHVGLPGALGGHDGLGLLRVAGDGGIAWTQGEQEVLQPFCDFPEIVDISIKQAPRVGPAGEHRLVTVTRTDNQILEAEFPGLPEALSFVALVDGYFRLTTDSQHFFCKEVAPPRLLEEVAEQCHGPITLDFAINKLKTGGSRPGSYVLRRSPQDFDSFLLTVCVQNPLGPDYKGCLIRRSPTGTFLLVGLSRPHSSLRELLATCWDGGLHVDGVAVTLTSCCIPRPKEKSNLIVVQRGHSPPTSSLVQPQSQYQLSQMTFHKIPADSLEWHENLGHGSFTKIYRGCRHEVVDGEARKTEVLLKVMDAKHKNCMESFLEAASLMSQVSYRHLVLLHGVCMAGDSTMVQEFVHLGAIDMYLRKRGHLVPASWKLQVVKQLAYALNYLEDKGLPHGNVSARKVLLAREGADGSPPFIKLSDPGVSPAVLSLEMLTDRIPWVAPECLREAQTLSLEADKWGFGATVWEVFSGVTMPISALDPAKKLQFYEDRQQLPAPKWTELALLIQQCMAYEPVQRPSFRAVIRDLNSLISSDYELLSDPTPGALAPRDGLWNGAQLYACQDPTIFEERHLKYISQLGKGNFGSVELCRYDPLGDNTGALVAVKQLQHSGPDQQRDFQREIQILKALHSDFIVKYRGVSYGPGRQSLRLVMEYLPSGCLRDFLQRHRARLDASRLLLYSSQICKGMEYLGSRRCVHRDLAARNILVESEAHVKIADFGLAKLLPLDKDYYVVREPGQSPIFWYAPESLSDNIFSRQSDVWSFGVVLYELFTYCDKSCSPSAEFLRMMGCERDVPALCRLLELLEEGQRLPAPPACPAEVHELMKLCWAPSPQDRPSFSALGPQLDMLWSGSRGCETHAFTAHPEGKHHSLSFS
# [2] = target: Tyrosine-protein kinase JAK1 (Homo sapiens, UniProt P23458); experiment: as §1
# [3] = target: Tyrosine-protein kinase JAK2 (Homo sapiens, UniProt O60674); experiment: as §1
# [4] = target: Non-receptor tyrosine-protein kinase TYK2 (Homo sapiens, UniProt P29597); experiment: as §1
# Non-receptor tyrosine-protein kinase TYK2, sequence (P29597 whole entry): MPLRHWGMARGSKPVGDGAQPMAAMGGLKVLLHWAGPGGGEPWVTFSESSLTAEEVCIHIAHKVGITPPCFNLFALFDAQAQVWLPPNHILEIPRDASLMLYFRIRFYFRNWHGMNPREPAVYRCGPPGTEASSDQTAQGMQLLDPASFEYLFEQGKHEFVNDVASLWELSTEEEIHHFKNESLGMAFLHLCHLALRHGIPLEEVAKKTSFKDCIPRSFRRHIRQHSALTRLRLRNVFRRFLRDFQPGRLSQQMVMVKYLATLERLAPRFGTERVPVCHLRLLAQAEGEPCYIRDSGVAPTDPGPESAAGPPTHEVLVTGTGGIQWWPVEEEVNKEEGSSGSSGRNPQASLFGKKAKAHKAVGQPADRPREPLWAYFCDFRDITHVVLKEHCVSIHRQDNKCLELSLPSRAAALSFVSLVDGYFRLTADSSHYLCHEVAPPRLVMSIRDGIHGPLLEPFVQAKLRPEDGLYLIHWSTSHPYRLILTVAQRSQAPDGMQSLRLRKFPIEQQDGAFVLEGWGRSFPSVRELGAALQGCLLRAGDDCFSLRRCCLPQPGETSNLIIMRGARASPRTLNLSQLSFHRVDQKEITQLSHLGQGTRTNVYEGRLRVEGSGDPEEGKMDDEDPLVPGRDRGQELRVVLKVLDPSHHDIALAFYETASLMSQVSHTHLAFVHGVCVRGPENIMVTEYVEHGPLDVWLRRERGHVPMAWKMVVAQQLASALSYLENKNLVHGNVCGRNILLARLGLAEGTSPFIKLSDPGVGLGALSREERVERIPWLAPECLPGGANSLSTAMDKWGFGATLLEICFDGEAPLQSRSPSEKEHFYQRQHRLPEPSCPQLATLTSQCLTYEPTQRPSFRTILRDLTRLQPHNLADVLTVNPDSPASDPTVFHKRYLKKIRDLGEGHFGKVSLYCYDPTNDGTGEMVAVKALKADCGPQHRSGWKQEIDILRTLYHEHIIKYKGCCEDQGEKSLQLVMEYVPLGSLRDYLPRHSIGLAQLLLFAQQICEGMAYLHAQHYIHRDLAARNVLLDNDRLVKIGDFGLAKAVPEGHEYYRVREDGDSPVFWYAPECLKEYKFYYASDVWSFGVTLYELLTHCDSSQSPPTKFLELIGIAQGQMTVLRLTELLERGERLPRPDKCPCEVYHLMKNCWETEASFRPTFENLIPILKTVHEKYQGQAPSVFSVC
# Tyrosine-protein kinase JAK1, sequence (P23458 whole entry): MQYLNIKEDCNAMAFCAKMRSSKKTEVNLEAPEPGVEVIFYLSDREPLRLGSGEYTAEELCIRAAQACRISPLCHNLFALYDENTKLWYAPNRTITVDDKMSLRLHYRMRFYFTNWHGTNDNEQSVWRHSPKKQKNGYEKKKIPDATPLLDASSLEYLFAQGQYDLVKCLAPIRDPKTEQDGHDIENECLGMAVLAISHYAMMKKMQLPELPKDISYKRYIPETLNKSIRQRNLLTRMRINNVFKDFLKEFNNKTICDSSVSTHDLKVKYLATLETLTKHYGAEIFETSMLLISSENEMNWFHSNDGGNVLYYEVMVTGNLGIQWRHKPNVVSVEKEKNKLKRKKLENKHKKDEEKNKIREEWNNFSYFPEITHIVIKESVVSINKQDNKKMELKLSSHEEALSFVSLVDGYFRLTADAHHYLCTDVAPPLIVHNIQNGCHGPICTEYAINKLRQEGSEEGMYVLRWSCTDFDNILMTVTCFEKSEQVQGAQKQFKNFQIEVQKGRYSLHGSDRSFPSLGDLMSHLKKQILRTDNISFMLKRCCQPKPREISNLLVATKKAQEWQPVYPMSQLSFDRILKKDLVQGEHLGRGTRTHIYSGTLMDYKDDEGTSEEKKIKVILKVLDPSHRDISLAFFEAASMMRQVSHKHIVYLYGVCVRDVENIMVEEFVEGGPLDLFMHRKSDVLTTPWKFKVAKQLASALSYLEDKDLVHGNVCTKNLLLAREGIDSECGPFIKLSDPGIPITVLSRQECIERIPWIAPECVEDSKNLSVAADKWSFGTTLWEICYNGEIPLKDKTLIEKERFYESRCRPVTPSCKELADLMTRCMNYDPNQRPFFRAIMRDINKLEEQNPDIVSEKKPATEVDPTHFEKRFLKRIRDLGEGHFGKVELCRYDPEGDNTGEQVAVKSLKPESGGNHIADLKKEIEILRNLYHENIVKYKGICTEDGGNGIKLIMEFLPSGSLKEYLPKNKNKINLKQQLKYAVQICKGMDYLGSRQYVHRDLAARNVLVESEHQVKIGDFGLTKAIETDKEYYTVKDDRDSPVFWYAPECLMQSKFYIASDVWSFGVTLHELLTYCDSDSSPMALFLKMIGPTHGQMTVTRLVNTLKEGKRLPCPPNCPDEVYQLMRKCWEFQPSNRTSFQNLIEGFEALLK
# Tyrosine-protein kinase JAK2, sequence (O60674 whole entry): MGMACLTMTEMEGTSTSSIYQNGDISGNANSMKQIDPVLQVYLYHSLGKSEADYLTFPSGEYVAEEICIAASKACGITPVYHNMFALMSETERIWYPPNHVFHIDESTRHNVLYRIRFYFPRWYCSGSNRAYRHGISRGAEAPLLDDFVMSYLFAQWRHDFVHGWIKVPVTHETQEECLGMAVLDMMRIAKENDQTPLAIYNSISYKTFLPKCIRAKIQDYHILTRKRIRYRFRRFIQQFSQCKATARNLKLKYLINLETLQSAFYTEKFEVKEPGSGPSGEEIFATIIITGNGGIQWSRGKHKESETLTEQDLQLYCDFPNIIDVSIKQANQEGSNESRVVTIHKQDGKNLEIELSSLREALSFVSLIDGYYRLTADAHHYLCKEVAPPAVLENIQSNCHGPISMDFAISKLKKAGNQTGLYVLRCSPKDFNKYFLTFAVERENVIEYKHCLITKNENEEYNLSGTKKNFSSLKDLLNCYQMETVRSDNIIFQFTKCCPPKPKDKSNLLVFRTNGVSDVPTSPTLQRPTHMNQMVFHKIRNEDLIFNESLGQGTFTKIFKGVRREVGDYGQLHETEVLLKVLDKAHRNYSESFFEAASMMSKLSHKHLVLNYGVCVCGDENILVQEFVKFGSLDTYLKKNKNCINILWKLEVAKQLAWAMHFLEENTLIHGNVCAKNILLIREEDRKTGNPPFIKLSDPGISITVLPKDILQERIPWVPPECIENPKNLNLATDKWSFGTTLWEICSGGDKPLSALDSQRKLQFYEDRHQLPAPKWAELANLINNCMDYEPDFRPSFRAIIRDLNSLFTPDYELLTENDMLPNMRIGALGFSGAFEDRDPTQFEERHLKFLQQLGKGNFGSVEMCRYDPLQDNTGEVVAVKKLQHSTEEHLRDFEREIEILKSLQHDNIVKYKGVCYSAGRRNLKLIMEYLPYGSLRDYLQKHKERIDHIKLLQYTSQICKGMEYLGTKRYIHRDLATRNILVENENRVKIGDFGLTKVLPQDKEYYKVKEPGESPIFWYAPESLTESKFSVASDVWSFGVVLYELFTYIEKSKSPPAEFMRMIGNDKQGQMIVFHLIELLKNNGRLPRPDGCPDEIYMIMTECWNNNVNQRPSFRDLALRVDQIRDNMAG
compound,measurement,setting,value
O=C(CBr)Nc1cccc(-c2cnc3ccccc3n2)c1,IC50,[1],0.0003 µM
same,IC50,[2],> 10 µM
same,IC50,[3],> 10 µM
same,IC50,[4],> 10 µM
